Tests used:
Format in all cases: in vivo
[1] = test system: Triticum aestivum (TRZAS); assay: F. Post-emergence effect on useful plants, TRZAS; details: useful plant
Procedure: (§1) Seeds of monocotyledonous and dicotyledonous weeds and crop plants were placed in sandy loam in plastic or organic planting pots, covered with soil and cultivated in a greenhouse under controlled growth conditions. 2 to 3 weeks after sowing, the test plants were treated at the one-leaf stage. The compounds of the invention, formulated in the form of wettable powders (WP) or as emulsion concentrates (EC), were then sprayed onto the green parts of the plants as aqueous suspension or emulsion with addition of 0.5% additive at a water application rate of 600 l/ha (converted). After the test plants had been kept in the greenhouse under optimum growth conditions for about 3 weeks, the activity of the preparations was rated visually in comparison to untreated controls.
(§2) For example, • 100% efficacy=plants have died, • 0% action=like untreated control plants.
(§3) Tables F1a to F4 below show the effects of selected compounds of the general formula (I) according to table 1 on various useful plants at an application rate corresponding to 320 g/ha or less, which were obtained by the experimental procedure mentioned above.

[2] = test system: Setaria viridis (SETVI); assay: E. Herbicidal post-emergence efficacy, SETVI; details: application rate 320 g/ha
Procedure: as §1, §2
(§4) Tables E1a to E12b below show the effects of selected compounds of the general formula (I) according to table 1 on various harmful plants at an application rate corresponding to 320 g/ha or less, which were obtained by the experimental procedure mentioned above.

[3] = test system: Kochia scoparia (KCHSC); assay: C. Herbicidal pre-emergence efficacy, KCHSC
Source text: (§5) Seeds of monocotyledonous and dicotyledonous weed plants and crop plants were placed in plastic or organic planting pots and covered with soil. The compounds of the invention, formulated in the form of wettable powders (WP) or as emulsion concentrates (EC), were then applied to the surface of the covering soil as aqueous suspension or emulsion with addition of 0.5% additive at a water application rate equivalent to 600 l/ha (converted). After the treatment, the pots were placed in a greenhouse and kept under good growth conditions for the test plants. After about 3 weeks, the efficacy of the preparations was scored visually in comparison with untreated controls as percentages. For example, • 100% efficacy=plants have died, • 0% efficacy=like untreated control plants.
(§6) Tables C1a to C14b below show the effects of selected compounds of the general formula (I) according to table 1 on various harmful plants at an application rate corresponding to 320 g/ha or less, which were obtained by the experimental procedure mentioned above.

[4] = test system: Zea mays (ZEAMX); assay: D. Pre-emergence effect on useful plants, ZEAMX; details: useful plant
Source text: as §5
(§7) Tables D1a to D5b below show the effects of selected compounds of the general formula (I) according to table 1 on various useful plants at an application rate corresponding to 320 g/ha or less, which were obtained by the experimental procedure mentioned above.

[5] = test system: Veronica persica (VERPE); assay: C. Herbicidal pre-emergence efficacy, VERPE; details: 320 g/ha, scored after about 3 weeks
Source text: as §5, §6

[6] = test system: Viola tricolor (VIOTR); assay: C. Herbicidal pre-emergence efficacy, VIOTR
Source text: as §5, §6

[7] = test system: Veronica persica (VERPE); assay: E. Herbicidal post-emergence efficacy, VERPE
Procedure: as §1, §2, §4

[8] = test system: Setaria viridis (SETVI); assay: C. Herbicidal pre-emergence efficacy, SETVI; details: 320 g/ha, scored after about 3 weeks
Source text: as §5, §6

[9] = test system: Pharbitis purpurea (PHBPU); assay: E. Herbicidal post-emergence efficacy, PHBPU
Procedure: as §1, §2, §4

[10] = test system: Glycine max (GLXMA); assay: D. Pre-emergence effect on useful plants, GLXMA; details: useful plant, application rate 80 g/ha
Source text: as §5, §7

[11] = test system: Lolium rigidum (LOLRI); assay: C. Herbicidal pre-emergence efficacy, LOLRI; details: 320 g/ha, scored after about 3 weeks
Source text: as §5, §6

[12] = test system: Echinochloa crus-galli (ECHCG); assay: C. Herbicidal pre-emergence efficacy, ECHCG; details: 320 g/ha, scored after about 3 weeks
Source text: as §5, §6

[13] = test system: Alopecurus myosuroides (ALOMY); assay: C. Herbicidal pre-emergence efficacy, ALOMY; details: 320 g/ha, scored after about 3 weeks
Source text: as §5, §6

[14] = test system: Echinochloa crus-galli (ECHCG); assay: E. Herbicidal post-emergence efficacy, ECHCG; details: application rate 320 g/ha
Procedure: as §1, §2, §4

[15] = test system: Abutilon theophrasti (ABUTH); assay: C. Herbicidal pre-emergence efficacy, ABUTH; details: scored after about 3 weeks
Source text: as §5, §6

[16] = test system: Abutilon theophrasti (ABUTH); assay: E. Herbicidal post-emergence efficacy, ABUTH; details: application rate 320 g/ha
Procedure: as §1, §2, §4

[17] = test system: Polygonum convolvulus (POLCO); assay: E. Herbicidal post-emergence efficacy, POLCO; details: application rate 320 g/ha
Procedure: as §1, §2, §4

[18] = test system: Zea mays (ZEAMX); assay: F. Post-emergence effect on useful plants, ZEAMX; details: useful plant, application rate 80 g/ha
Procedure: as §1, §2, §3

[19] = test system: Viola tricolor (VIOTR); assay: E. Herbicidal post-emergence efficacy, VIOTR
Procedure: as §1, §2, §4

[20] = test system: Polygonum convolvulus (POLCO); assay: C. Herbicidal pre-emergence efficacy, POLCO; details: 320 g/ha, scored after about 3 weeks
Source text: as §5, §6

[21] = test system: Amaranthus retroflexus (AMARE); assay: E. Herbicidal post-emergence efficacy, AMARE
Procedure: as §1, §2, §4

[22] = test system: Kochia scoparia (KCHSC); assay: E. Herbicidal post-emergence efficacy, KCHSC
Procedure: as §1, §2, §4

[23] = test system: Amaranthus retroflexus (AMARE); assay: C. Herbicidal pre-emergence efficacy, AMARE; details: scored after about 3 weeks
Source text: as §5, §6

[24] = test system: Digitaria sanguinalis (DIGSA); assay: C. Herbicidal pre-emergence efficacy, DIGSA; details: 320 g/ha, scored after about 3 weeks
Source text: as §5, §6

[25] = test system: Triticum aestivum (TRZAS); assay: D. Pre-emergence effect on useful plants, TRZAS; details: useful plant
Source text: as §5, §7

[26] = test system: Brassica napus (BRSNW); assay: D. Pre-emergence effect on useful plants, BRSNW; details: useful plant, application rate 80 g/ha
Source text: as §5, §7

Row | Post-emergence efficacy against TRZAS in % ([1]; application rate 80 g/ha) | Pre-emergence efficacy against ZEAMX in % ([4]; application rate 80 g/ha) | Pre-emergence efficacy against TRZAS in % ([25]; application rate 80 g/ha) | Structure (SMILES) | Pre-emergence efficacy against KCHSC in % ([3]; application rate 320 g/ha) | Pre-emergence efficacy against VIOTR in % ([6]; application rate 320 g/ha) | Post-emergence efficacy against VERPE in % ([7]; application rate 80 g/ha) | Post-emergence efficacy against VERPE in % ([7]; application rate 320 g/ha) | Post-emergence efficacy against PHBPU in % ([9]; application rate 80 g/ha) | Post-emergence efficacy against PHBPU in % ([9]; application rate 320 g/ha) | Post-emergence efficacy against VIOTR in % ([19]; application rate 80 g/ha) | Post-emergence efficacy against VIOTR in % ([19]; application rate 320 g/ha) | Post-emergence efficacy against AMARE in % ([21]; application rate 80 g/ha) | Post-emergence efficacy against AMARE in % ([21]; application rate 320 g/ha) | Post-emergence efficacy against KCHSC in % ([22]; application rate 80 g/ha) | Post-emergence efficacy against KCHSC in % ([22]; application rate 320 g/ha) | Pre-emergence efficacy against AMARE ([23]; 80 g/ha) | Pre-emergence efficacy against AMARE ([23]; 320 g/ha) | also measured
1 | 0% | 0% | 0% | Cc1cccc(Oc2ncc(Cl)cn2)c1OS(=O)(=O)CCC(F)=C(F)F [Example I-71] | 100% | 100% | 80% | 100% | 80% | 90% | 90% | 100% | 90% | 100% | 100% | 100% | 100% | 100% | Post-emergence efficacy against TRZAS in % ([1]; application rate 320 g/ha): 0%; Post-emergence efficacy against SETVI in % [2]: 100%; Pre-emergence efficacy against VERPE [5]: 90%; Pre-emergence efficacy against VIOTR in % ([6]; application rate 80 g/ha): 100%; Pre-emergence efficacy against SETVI [8]: 100%; Pre-emergence efficacy against GLXMA in % [10]: 10%; Pre-emergence efficacy against LOLRI [11]: 80%; Pre-emergence efficacy against ECHCG [12]: 100%; Pre-emergence efficacy against ALOMY [13]: 80%; Post-emergence efficacy against ECHCG in % [14]: 90%; Pre-emergence efficacy against ABUTH ([15]; 80 g/ha): 80%; Pre-emergence efficacy against ABUTH ([15]; 320 g/ha): 100%; Post-emergence efficacy against ABUTH in % [16]: 100%; Post-emergence efficacy against POLCO in % [17]: 100%; Post-emergence efficacy against ZEAMX in % [18]: 0%; Pre-emergence efficacy against POLCO [20]: 100%; Pre-emergence efficacy against DIGSA [24]: 100%
2 | 0% | 0% | 0% | N#Cc1cccc(Oc2ncc(Cl)cn2)c1OS(=O)(=O)CC1CC1(Cl)Cl (stereo not shown) [Example I-78] | 100% | 100% | 100% | 100% | 90% | 100% | 90% | 100% | 90% | 100% | 100% | 100% | 100% | 100% | Pre-emergence efficacy against KCHSC in % ([3]; application rate 80 g/ha): 100%; Pre-emergence efficacy against ZEAMX in % ([4]; application rate 320 g/ha): 20%; Pre-emergence efficacy against BRSNW in % [26]: 20%; Pre-emergence efficacy against TRZAS in % ([25]; application rate 320 g/ha): 0%
